Entries after “also recorded” stand apart in the source; their conditions may differ.
How the values were obtained:
8505C-PNIS-PCMV cells = experiment: R-luc BLI signal indicating cell viability in dual-reporter cells; format: cell-based, human; conditions: FIG. 7B
From the text: (§1) A pNIS-FL2-TurboFP635-pCMV-Rluc recombinant vector expressing reporter genes driven by dual promoters was constructed by Cosmo Genetech, Ltd. (Republic of Korea) using a pNIS-FL2-TurboFP635 vector and a pcDNA3.1/Hygro(+) vector. Specifically, in order to screen a substance that increases the activity of NIS promoter, Firefly-luciferase2(F-luc2) and TurboFP635 were included downstream (clockwise) of the NIS promoter. In order count cells, CMV promoter and Renilla-luciferase (R-luc) were included upstream (counterclockwise) of the NIS promoter. The pNIS-FL2-TurboFP635 vector was provided from Dr. Abhijit De (ACTREC, India), and the pcDNA3.1/Hygro(+) vector was purchased from invitrogen (USA).
(§2) The 8505C cell line was transfected with the pNIS-FL2-TurboFP635-pCMV-Rluc recombinant vector using the Fu-GENE HD solution according to the protocols of the manufacturer (Promega). […]
(§3) To examine transcriptional regulation of the NIS (sodium iodide symporter) promoter, the 8505C-PNIS-PCMV cells were treated with a tyrosine kinase inhibitor (hereinafter referred to as TKI) library for 24 hours. Next, D-luciferin (150 μg/ml) was added to the cells, and the activity of NIS promoter was measured by IVIS Lumina III (Perkin-Elmer, Wellesley, Mass., USA). To normalize the NIS promoter activity to cell number, 10 μg/ml of h-coelenterazine was added to the cells, and the activity of R-luc was measured. […]

[1] = as above; format: cell-based, human; conditions: human; 8505C-PNIS-PCMV cells, 24 hours, screening; read-out: BLI signal activity of R-luc (cell viability) compared to vehicle group
From the text: as §1, §2, §3

[2] = tested on: anaplastic thyroid cancer xenograft (8505C-PNIS-PCMV); experiment: In vivo 99mTc-pertechnetate gamma camera imaging; parameters: species or system Balb/c nude mice; conditions: for 99mTc-pertechnetate uptake (tumor ROI normalized to background), FIG. 16B: 50 mg/kg
Experimental: (§4) Female Balb/c nude mice, 5.5-week old with an average weight of 18.9±0.37 g (mean±standard deviation [SD]), were purchased (Hamamatsu, Shizuoka, Japan). The mice were acclimated under specific pathogen-free conditions for one week before starting the experiment, and were maintained at a temperature of 20 to 25° C. and a relative humidity of 40 to 70%. To establish anaplastic thyroid cancer xenograft mouse models, 8505C-PNIS-PCMV s (5×10^6) were mixed with Matrigel (Corning) at a ratio of 1:1 and injected subcutaneously into the right flank region of each mouse.
When the injected 8505C-PNIS-PCMV cells grew to a size of about 50 mm^3, the mice were divided into two groups (n=5): a vehicle group; and a TKI-0266-administered group (50 mg/kg) injected with TKI-0266 by intraperitoneal injection every day for 5 days. To acquire gamma-camera images, 18.5 to 22.2 MBq ^99mTc-pertechnetate was administered to all the mice by intravenous injection. Whole body pinhole gamma camera imaging using a 2-mm pinhole collimator was acquired by infinia II gamma camera (GE Healthcare, USA). During the experiment, the mice were maintained under anesthesia with isoflurane (Forane, ChoongWae Co., Ltd., Korea). In order to estimate the count value, quantitative analysis was performed by quantifying the regions of interest (hereinafter referred to as ROI) in the mouse tumor region. Finally, in order to confirm the pertechnetate absorbed into the tumor, normalization was performed with a background activity ROI of the same size in the mouse head region.

8505C cells = experiment: 131I clonogenic assay; format: cell-based, human
Experimental: 8505C cells (4×10^5) cells were seeded in a six-well plate, and then treated with TKI-0266 and incubated for 24 hours. Next, the medium was removed, and the cells were washed twice with bHBSS, and then incubated in the presence or absence of 50 μCi/ml ^131I (KIRAMS, Korea) containing 30 μM NaI for 7 hours at 37° C. After incubation, the cells were washed twice with bHBSS, re-seeded in a new six-well plate at a density of 1,000 cells/well, and then incubated for 7 days to induce colony formation. On day 7, the medium was removed and the cells were washed twice with PBS. A fixation buffer containing acetic acid:methanol at a ratio of 1:7 was added to the cells and the plate was left to stand at room temperature for 5 minutes to fix colonies. The fixed colonies were stained with 0.05% crystal violet for 1 hour and immersed in tap water to remove crystal violet. The colonies containing 50 or more cells were counted. Percentage inhibition was calculated as the number of colonies formed in the TKI-0266-treated group relative to the vehicle control.

[3] = tested on: anaplastic thyroid cancer xenograft (8505C-PNIS-PCMV); experiment: Tumor growth inhibition in xenograft mice (tumor size, R-luc BLI); format: in vivo, Balb/c nude mice
Experimental: as §4
In addition, in order to evaluate the effect of TKI-0266 administration on the treatment of thyroid cancer, mice for use in the experiment were divided into four groups (n=5): the vehicle group; the ^131I-administered group (injected intraperitoneally with 1 mCi Na-^131I on day 2 of the experiment; the TKI-0266-administered group (injected intraperitoneally with 50 mg/kg of TKI-0266 for 5 days); and the group co-administered with ^131I and TKI-0266 (injected intraperitoneally with 50 mg/kg of TKI-0266 for 5 days, and injected intravenously with 1 mCi Na-^131I on day 2; n=5). To measure the degree of tumor growth, h-coelenterazine (15 μg/ml) was administered to the mice by intravenous injection, and then the R-luc activity was monitored by BLI every 5 days.

## Cc1cc2c(N(C)C3CCCCC3)ncnc2s1 [TKI-0266]
8505C-PNIS-PCMV cells
  BLI signal activity of R-luc, vehicle group vs treated group: did not significantly differ
[1]
  viability at 24 h: ~75%
[2]; 50 mg/kg every day for 5 days
  99mTc-pertechnetate accumulation in the cancer cells (radioisotope uptake): significantly increased; also recorded: the best
[2]; day 0
  99mTc-pertechnetate uptake (tumor ROI normalized to background), FIG. 16B: 0.852±0.210
[2]; day 6
  99mTc-pertechnetate uptake (tumor ROI normalized to background), FIG. 16B: 1.21±0.24
8505C cells; TKI-0266 alone
  colony-forming ability compared to vehicle group: decreased
8505C cells; co-treated with 131I and TKI-0266
  colony-forming ability compared to vehicle, 131I-treated and TKI-0266-treated groups: significantly decreased
[3]; TKI-0266 alone, 50 mg/kg for 5 days
  tumor growth rate compared to vehicle group and 131I alone group: slow tumor growth rate
[3]; co-administered with 131I and TKI-0266
  tumor growth inhibitory effect among the four experimental groups: best tumor growth inhibitory effect
[3]; co-administered with 131I and TKI-0266, day 6 after administration
  R-luc signal intensity: decreased
[3]; co-administered with 131I and TKI-0266, day 11 after administration
  R-luc signal intensity: restored
[3]; single agent administration
  tumor size on days 6 and 11: increase
